Results taken from ChEMBL document CHEMBL3217615, “Novel 3,5-bis(arylidiene)-4-piperidone based monocarbonyl analogs of curcumin: anticancer activity evaluation and mode of action study” (2014).

Key:
Format in all cases: functional
[1] = Growth inhibition of human UACC62 cells after 48 hrs by sulforhodamine B assay; details: UACC-62, 48 h
SNB-19 = assay: Growth inhibition of human SNB19 cells assessed as cell growth at 10^-8 M after 48 hrs by sulforhodamine B assay; details: SNB-19, 48 h
CCRF-CEM = assay: Growth inhibition of human CCRF-CEM cells assessed as cell growth at 10^-7 M after 48 hrs by sulforhodamine B assay; details: read-out: Activity
KM12 [2] = assay: Growth inhibition of human KM12 cells after 48 hrs by sulforhodamine B assay; details: KM12, 48 h
[3] = Growth inhibition of human OVCAR5 cells assessed as cell growth at 10^-8 M after 48 hrs by sulforhodamine B assay; details: OVCAR-5, 48 h
U-251 = assay: Growth inhibition of human U251 cells after 48 hrs by sulforhodamine B assay; details: U-251, 48 h
HL-60(TB) = assay: Growth inhibition of human HL-60(TB) cells after 48 hrs by sulforhodamine B assay; details: HL-60, 48 h
[4] = Growth inhibition of human UACC257 cells assessed as cell growth at 10^-8 M after 48 hrs by sulforhodamine B assay; details: UACC-257, 48 h
NCI-H226 [5] = assay: Growth inhibition of human NCI-H226 cells assessed as cell growth at 10^-6 M after 48 hrs by sulforhodamine B assay; details: NCI-H226, 48 h, read-out: Activity
COLO 205 [6] = assay: Induction of apoptosis in human COLO205 cells assessed as DNA fragmentation at 10 uM
[7] = Growth inhibition of human OVCAR8 cells assessed as cell growth at 10^-4 M after 48 hrs by sulforhodamine B assay; details: OVCAR-8, 48 h, read-out: Activity
COLO 205 [8] = assay: Induction of apoptosis in human COLO205 cells assessed as late apoptosis cells level at 10 uM after 24 hrs by Annexin V/propidium iodide staining-based fluorescence microscopy
NCI-H522 = assay: Growth inhibition of human NCI-H522 cells assessed as cell growth at 10^-4 M after 48 hrs by sulforhodamine B assay; details: NCI-H522, 48 h, read-out: Activity
KM12 [9] = assay: Growth inhibition of human KM12 cells assessed as cell growth at 10^-4 M after 48 hrs by sulforhodamine B assay; details: KM12, 48 h, read-out: Activity
KM12 [10] = assay: Growth inhibition of human KM12 cells assessed as cell growth at 10^-7 M after 48 hrs by sulforhodamine B assay; details: KM12, 48 h, read-out: Activity
M14 [11] = assay: Growth inhibition of human M14 cells assessed as cell growth at 10^-8 M after 48 hrs by sulforhodamine B assay; details: M14, 48 h
MDA-MB-231 = assay: Growth inhibition of human MDA-MB-231 cells assessed as cell growth at 10^-7 M after 48 hrs by sulforhodamine B assay; details: MDA-MB-231, 48 h, read-out: Activity
[12] = Growth inhibition of human UO31 cells assessed as cell growth at 10^-6 M after 48 hrs by sulforhodamine B assay; details: UO-31, 48 h, read-out: Activity
T47D [13] = assay: Growth inhibition of human T47D cells assessed as cell growth at 10^-8 M after 48 hrs by sulforhodamine B assay
M14 [14] = assay: Growth inhibition of human M14 cells assessed as cell growth at 10^-6 M after 48 hrs by sulforhodamine B assay; details: M14, 48 h, read-out: Activity
K562 [15] = assay: Growth inhibition of human K562 cells assessed as cell growth at 10^-4 M after 48 hrs by sulforhodamine B assay; details: K562, 48 h, read-out: Activity
[16] = Growth inhibition of human SF539 cells assessed as cell growth at 10^-6 M after 48 hrs by sulforhodamine B assay; details: SF-539, 48 h, read-out: Activity
786-0 = assay: Growth inhibition of human 786-0 cells after 48 hrs by sulforhodamine B assay; details: 786-0, 48 h
[17] = Growth inhibition of human UO31 cells assessed as cell growth at 10^-4 M after 48 hrs by sulforhodamine B assay; details: UO-31, 48 h, read-out: Activity
SK-MEL-2 = assay: Growth inhibition of human SK-MEL-2 cells assessed as cell growth at 10^-6 M after 48 hrs by sulforhodamine B assay; details: SK-MEL-2, 48 h, read-out: Activity
K562 [18] = assay: Growth inhibition of human K562 cells assessed as cell growth at 10^-8 M after 48 hrs by sulforhodamine B assay; details: K562, 48 h
[19] = Growth inhibition of human HCC2998 cells assessed as cell growth at 10^-6 M after 48 hrs by sulforhodamine B assay; details: HCC 2998, 48 h, read-out: Activity
NCI-H226 [20] = assay: Growth inhibition of human NCI-H226 cells after 48 hrs by sulforhodamine B assay; details: NCI-H226, 48 h
[21] = Growth inhibition of human UACC257 cells assessed as cell growth at 10^-7 M after 48 hrs by sulforhodamine B assay; details: UACC-257, 48 h, read-out: Activity
IGROV-1 = assay: Growth inhibition of human IGROV1 cells assessed as cell growth at 10^-6 M after 48 hrs by sulforhodamine B assay; details: IGROV-1, 48 h, read-out: Activity
NCI-H322M = assay: Growth inhibition of human NCI-H322M cells assessed as cell growth at 10^-8 M after 48 hrs by sulforhodamine B assay
T47D [22] = assay: Growth inhibition of human T47D cells assessed as cell growth at 10^-7 M after 48 hrs by sulforhodamine B assay; details: read-out: Activity
SNB-75 = assay: Growth inhibition of human SNB75 cells assessed as cell growth at 10^-6 M after 48 hrs by sulforhodamine B assay; details: SNB-75, 48 h, read-out: Activity
[23] = read-out: LC50 (the source's name)
[24] = read-out: pLC50 (the source's name) (converted)

Cc1ccc(S(=O)(=O)N2C/C(=C\c3cc(F)cc(F)c3)C(=O)/C(=C/c3cc(F)cc(F)c3)C2)cc1
GI50 [1]: 0.212 µM
TGI [1]: 0.514 µM
CC50 [1, 23]: 1.62 µM
GI50 (SNB-19): 0.219 µM
LC50 (SNB-19): 2.82 µM
growth at 0.01 µM (SNB-19; read-out: Activity): 87%
TGI (SNB-19; read-out: pTGI (converted)): 0.759 µM
growth at 0.1 µM (CCRF-CEM): 44%
GI50 (KM12 [2]): 0.327 µM
TGI (KM12 [2]): 1 µM
CC50 (KM12 [2]; [23]): 4.04 µM
GI50 [3]: 1.02 µM
LC50 [3]: 7.41 µM
growth at 0.01 µM ([3]; read-out: Activity): 95%
TGI ([3]; read-out: pTGI (converted)): 2.75 µM
GI50 (U-251): 0.188 µM
TGI (U-251): 0.53 µM
CC50 (U-251; [23]): 2.02 µM
GI50 (HL-60(TB)): 0.289 µM
TGI (HL-60(TB)): 1.74 µM
CC50 (HL-60(TB); [23]): > 100 µM
GI50 [4]: 0.933 µM
LC50 [4]: 8.51 µM
growth at 0.01 µM ([4]; read-out: Activity): 93%
TGI ([4]; read-out: pTGI (converted)): 2.88 µM
growth at 1 µM (NCI-H226 [5]): 90%
Activity (COLO 205 [6]): 69.5%
growth at 100 µM [7]: -71%
Activity (COLO 205 [8]): 43%
growth at 100 µM (NCI-H522): -94%
growth at 100 µM (KM12 [9]): -88%
growth at 0.1 µM (KM12 [10]): 103%
GI50 (M14 [11]): 0.363 µM
growth at 0.01 µM (M14 [11]; read-out: Activity): 103%
CC50 (M14 [11]; [24]): 5.89 µM
TGI (M14 [11]; read-out: pTGI (converted)): 1.41 µM
growth at 0.1 µM (MDA-MB-231): 97%
growth at 1 µM [12]: 55%
GI50 (T47D [13]): 1.78 µM
growth at 0.01 µM (T47D [13]; read-out: Activity): 96%
CC50 (T47D [13]; [24]): 53.7 µM
TGI (T47D [13]; read-out: pTGI (converted)): 6.03 µM
growth at 1 µM (M14 [14]): 12%
growth at 100 µM (K562 [15]): -41%
growth at 1 µM [16]: 61%
GI50 (786-0): 0.587 µM
TGI (786-0): 1.91 µM
CC50 (786-0; [23]): 4.95 µM
growth at 100 µM [17]: -95%
growth at 1 µM (SK-MEL-2): 89%
GI50 (K562 [18]): 0.0776 µM
growth at 0.01 µM (K562 [18]; read-out: Activity): 94%
CC50 (K562 [18]; [24]): > 100 µM
TGI (K562 [18]; read-out: pTGI (converted)): 1.38 µM
growth at 1 µM [19]: 35%
GI50 (NCI-H226 [20]): 8.62 µM
TGI (NCI-H226 [20]): 39.6 µM
CC50 (NCI-H226 [20]; [23]): > 100 µM
growth at 0.1 µM [21]: 87%
growth at 1 µM (IGROV-1): 18%
GI50 (NCI-H322M): 4.68 µM
LC50 (NCI-H322M): > 100 µM
growth at 0.01 µM (NCI-H322M; read-out: Activity): 102%
TGI (NCI-H322M; read-out: pTGI (converted)): 22.9 µM
growth at 0.1 µM (T47D [22]): 101%
growth at 1 µM (SNB-75): 82%
